The labels stand for the following.
B1: ICM-forming enzyme: enzyme from Bacillus circulans AM7 (FERM BP-10111) forming ICM from α-1,4 glucans; amino acid sequence SEQ ID NO:2 (protein)
chain: ASIGTVTENDTIYQIMVDRFNDGDSSNNATGAAIRYGENSEEDFRYMKGGDWQGVIDKLPYIHNMGYTAIWISPVAEPQMTNRENNGTGKNTAYHGYNVKDPNKANPYFGTKEKLKELVDSAHALGIKVIIDVVPNHIGDYMLGTQAFYDIPSLQPAAPFNNPAWYHHNGDINWSLADGRYDQWAQDYLENHDLGGLDDIDFDVPAAKQAIFSSIKGWFDYTGADGARVDAAKLMKPTDIGELQNLLGVNTFGENFDGNAEFVSRWVGTNKEWGMLDFPLFFSVLNSFAYGQSFDANIKGTLAQDSYYGGNANHMVTFIDNHDRNRFLTEAGGSVEKLQNALSFIFTVRGTPVVFQGTEQNKGNGNGQIMTGGIADTWNRWSMVKRDANGNVLENYFNENASTFKHVAKLNEIRKNNPALRTGTQREMWSAQNLYAFSRRIDTGTNVGQEVISAFSNASGGSQTVTLPLRAESTLTAGTVLVNQLNPSDTVTVQAGGVTGKQITVTLGANSAKIYAKTQPVTDTQAPSVPGNVTATVQNASSALVSWSASTDNVGVTGYEIYRNGVKIGTSATTSFTDNGLVGSTNYSYTVKAYDAAMNLSAFSAAALIVTPAGNSVTIYYKQGYTNPYIHYRPVGGTWTTSPGVAIPAAEVAGYNKITINIGAATQLEACFNNGSGIWDSNGGSNYLFGTGTWTYTPTGNIQAGGPVTPTASPTATPTVAPTATPTVTPTPTPTATPTVAPTATPTVAPTATPVPTATPAGNTATIYYKNTAFSNSYIHYKLDGATTWTTSPGVPMQASTFSGYKSITIPLGTATGLTAAFNNGSGTWDSNGGNNYHFGTGSSSLVGGSLTTGEPQADSVTFRVSVPGSTPANAPVYLTGSFNSWNAADTAYLLTRGSDGVYSVTLNLPAGTAVTYKLTRGSWATVETTSSGADITNRTLTPAGGAQTVTISVQRWKDQ
modifications: Bacillus circulans

We go through 38 molecules from patent US8633005B2, “Isocyclomaltooligosaccharide(s), isocyclomaltooligosaccharide-forming enzyme, their preparation and uses” (Hayashibara Co., Ltd., priority 2004, dated 2014).

The first data set concerns ICM-forming enzyme. The data set can be described thus: Effects of metal ions on the enzyme activity. Type of data set: biochemical, Bacillus circulans AM7.
Details: not given
Regarding `[Cl-].[Cl-].[Co+2]` [CoCl2], the Relative activity amounted to 100%.

The same data set, now with this note: 1 mM metal salt.
Consider `[Cl][Hg][Cl]` [HgCl2], for which the “Inhibition of ICM-forming enzyme activity” value was 45%.
As to `O=C(O)CN(CCN(CC(=O)O)CC(=O)O)CC(=O)O` [EDTA], the “Inhibition of ICM-forming enzyme activity” value was “inhibited slightly”.
Still for that read-out and setting: the result for `[Cl][Cu][Cl]` [CuCl2] reads “about 20%”; that for `[Cl][Fe]([Cl])[Cl]` [FeCl3], “about 20%”.

The data set is the same for the next values; noted with them: 1 mM metal salt; None = 100.
For `[Ca+2].[Cl-].[Cl-]` [CaCl2], the Relative activity was 105%.
As for `[Cl][Hg][Cl]` [HgCl2], the Relative activity is on record as 55%.
Turning to `[Ba+2].[Cl-].[Cl-]` [BaCl2], the Relative activity came out at 99%.
Take `[Cl-].[Cl-].[Sr+2]` [SrCl2]: the Relative activity is listed as 100%.
`[Cl][Mn][Cl]` [MnCl2]: the Relative activity came out at 108%.
As to `[Cl-].[Cl-].[Zn+2]` [ZnCl2], the Relative activity turned out to be 113%.
As for `O=C(O)CN(CCN(CC(=O)O)CC(=O)O)CC(=O)O` [EDTA], the Relative activity came out at 86%.
With `[Cl][Al]([Cl])[Cl]` [AlCl3], the Relative activity amounted to 106%.
As to `[Cl-].[Cl-].[Mg+2]` [MgCl2], the Relative activity was determined as 110%.
On to `[Cl][Cu][Cl]` [CuCl2], for which the Relative activity is 79%.
In the case of `[Cl][Pb][Cl]` [PbCl2], the Relative activity is given as 130%.
Same read-out and setting: the result for `[Cl][Ni][Cl]` [NiCl2] reads 105%; that for `[Cl][Fe][Cl]` [FeCl2], 94%.
As for `[Cl][Fe]([Cl])[Cl]` [FeCl3], the Relative activity stood at 82%.

The next data set concerns ICM-forming enzyme. Nature of the data set: Action on various saccharides (substrate specificity, TLC). As to conditions: substrate 2% (w/v), one unit/g-substrate enzyme, 40° C., pH 6.0, 24 hours. It counts as biochemical, Bacillus circulans AM7. Also on record: key: −: Not changed; +: Spot of substrate is slightly decreased and the formation of ICM are detected; ++: Spot of substrate is markedly decreased and the formation of ICM are detected; +++: Spot of substrate is virtually disappeared and the formation of ICM are detected. How it is done:
Substrate specificity of ICM-forming enzyme was investigated using various saccharides as substrates. Substrate solutions were prepared by dissolving maltose, maltotriose, maltotetraose, maltopentaose, maltohexaose, maltoheptaose, neotrehalose, trehalose, kojibiose, nigerose, isomaltose, isomaltotriose, panose, isopanose, maltitol, maltotriitol, α-, β-, or γ-cyclodextrin, amylose, soluble starch, glycogen, pullulan or dextran in water. Each substrate solution was admixed with acetate buffer (pH 6.0) and CaCl2 to give final concentrations of 20 mM and 1 mM, respectively. […] Substrate concentration was set to 2% (w/v) and followed by the enzyme reaction at 40° C. and pH 6.0 for 24 hours. To examine the saccharides in each mixture before and after the reaction, saccharides were separated by silica gel thin-layer chromatography (hereinafter, simply abbreviated as “TLC”) using “KIESELGEL 60”, a TLC aluminum plate (10×20 cm) and a solvent (n-butanol/pyridine/water, volume ratio of 6:4:1) and two-times ascending method. The separated saccharides on the plate were detected by visualizing the spots with sulfate-methanol method. By the above TLC analyses, the enzymatic action and the degree of the reaction of ICM-forming enzyme on each substrate were confirmed.
Turning to `OC[C@@H](O)[C@@H](O[C@H]1O[C@H](CO)[C@@H](O)[C@H](O)[C@H]1O)[C@H](O)[C@@H](O)CO` [Maltitol, maltitol], the Action result is on record as “−”.
For `OC[C@H]1O[C@H](OC[C@H]2OC(O)[C@H](O)[C@@H](O)[C@@H]2O)[C@H](O)[C@@H](O)[C@@H]1O` (stereo partly drawn) [Isomaltose, isomaltose], the Action result is “−”.
Consider amylose, for which the Action entry is on record as “+++”.
Still for that read-out and setting: the result for `OC[C@H]1O[C@H](O[C@H]2[C@H](O)[C@@H](O)[C@@H](O[C@H]3[C@H](O)[C@@H](O)[C@@H](O[C@H]4[C@H](O)[C@@H](O)C(O)O[C@@H]4CO)O[C@@H]3CO)O[C@@H]2CO)[C@H](O)[C@@H](O)[C@@H]1O` (stereo partly drawn) [Maltotetraose, maltotetraose] reads “++”; that for `OC[C@@H](O)[C@@H](O[C@H]1O[C@H](CO)[C@@H](O[C@H]2O[C@H](CO)[C@@H](O)[C@H](O)[C@H]2O)[C@H](O)[C@H]1O)[C@H](O)[C@@H](O)CO` [Maltotriitol, maltotriitol], “−”; that for `OC[C@H]1O[C@H](O[C@H]2[C@H](O)[C@@H](O)C(O)O[C@@H]2CO)[C@H](O)[C@@H](O)[C@@H]1O` (mixture of isomers) [Maltose, maltose], “−”.
As to pullulan, the Action entry was “−”.
soluble starch: the Action entry is reported as “++”.
As for `OC[C@H]1O[C@H](OC[C@H]2O[C@H](O[C@H]3[C@H](O)[C@@H](O)C(O)O[C@@H]3CO)[C@H](O)[C@@H](O)[C@@H]2O)[C@H](O)[C@@H](O)[C@@H]1O` (stereo partly drawn) [Panose, panose], the Action result was “−”.
As for `OC[C@H]1O[C@H](O[C@H]2C(O)O[C@H](CO)[C@@H](O)[C@@H]2O)[C@H](O)[C@@H](O)[C@@H]1O` (stereo partly drawn) [Kojibiose, kojibiose], the Action result is “−”.
For maltotriose, the Action entry was “+”.
As to `OC[C@H]1O[C@H](O[C@H]2O[C@H](CO)[C@@H](O)[C@H](O)[C@H]2O)[C@H](O)[C@@H](O)[C@@H]1O` [Trehalose, trehalose], the Action result is “−”.
As for dextran, the Action entry is listed as “−”.
As for maltopentaose, the Action entry is recorded as “+++”.
On to `OC[C@H]1O[C@@H](O[C@H]2O[C@H](CO)[C@@H](O)[C@H](O)[C@H]2O)[C@H](O)[C@@H](O)[C@@H]1O` [Neotrehalose, neotrehalose], for which the Action result is recorded as “−”.
For the molecule `OC[C@H]1O[C@H](O[C@H]2[C@H](O)[C@@H](CO)OC(O)[C@@H]2O)[C@H](O)[C@@H](O)[C@@H]1O` (stereo partly drawn) [Nigerose, nigerose], the Action result was “−”.
Same read-out and setting: the result for `OC[C@H]1O[C@H](OC[C@H]2O[C@H](OC[C@H]3OC(O)[C@H](O)[C@@H](O)[C@@H]3O)[C@H](O)[C@@H](O)[C@@H]2O)[C@H](O)[C@@H](O)[C@@H]1O` (stereo partly drawn) [Isomaltotriose, isomaltotriose] reads “−”.
Take maltoheptaose: the Action result is “+++”.
With `OC[C@H]1O[C@H](O[C@H]2[C@H](O)[C@@H](O)[C@@H](OC[C@H]3OC(O)[C@H](O)[C@@H](O)[C@@H]3O)O[C@@H]2CO)[C@H](O)[C@@H](O)[C@@H]1O` (stereo partly drawn) [Isopanose, isopanose], the Action result was “−”.
Turning to maltohexaose, the Action result is “+++”.
On to glycogen, for which the Action result is given as “+”.

System in another data set: not listed separately
The data set can be described thus: Reducing power by the Somogyi-Nelson method.
Details: not given
It counts as physicochemical. An excerpt:
It was concluded that Saccharides I and II were substantially non-reducing saccharides.
`OCC1OC2OC3C(CO)OC(OC4C(CO)OC(OC5C(CO)OC(OC6C(CO)OC(OCC7OC(OC1C(O)C2O)C(O)C(O)C7O)C(O)C6O)C(O)C5O)C(O)C4O)C(O)C3O` [ICG6, cyclo{→6)-α-D-glucopyranosyl-(1→4)-α-D-glucopyranosyl-(1→4)-α-D-glucopyranosyl-(1→4)-α-D-glucopyranosyl-(1→4)-α-D-glucopyranosyl-(1→4)-α-D-glucopyranosyl-(1→}]: the Reducing power entry was “less than the measurable limit”.

System in another data set: not listed separately
The data set can be described thus: Optimum temperature and pH for the enzyme reaction. As to conditions: enzyme purified from Bacillus circulans AM7; 30° C. for 30 min. Type of data set: biochemical, Bacillus circulans AM7. How it is done:
The enzyme activity of ICM-forming enzyme of the present invention can be assayed as follows: A substrate solution is prepared by dissolving amylose in 50 mM acetate buffer (pH 6.0) containing 1 mM CaCl2 to give a concentration of 1.25% (w/v). 0.2 ml of an enzyme solution is added to 0.8 ml of the substrate solution, and the mixture solution is incubated at 30° C. for 30 mm. After stopping the reaction by heating at about 100° C. for 10 min, the reaction mixture is admixed with 4,000 units/g-solid of α-glucosidase and 250 units/g-solid of glucoamylase to hydrolyze the remaining soluble starch and concomitant oligosaccharides, and followed by the enzyme treatment at 50° C. for one hour. The amount of ICG5 contained in the treated mixture is determined by HPLC described later in Experiment 1. One unit activity of ICM-forming enzyme is defined as the amount of enzyme which forms one μmole of ICG5 per minute under the above conditions.
The results are in FIG. 9 (Optimum temperature) and FIG. 10 (Optimum pH), respectively.
Turning to B1, the “Optimum pH” value fell in the range of 4.5 to 8.0.

Still in this data set, the particulars now being: enzyme purified from Bacillus circulans AM7; pH 6.0 for 30 min.
Turning to B1, the Optimum temperature was in the range of 50 to 55 °C.

Still in this data set, the particulars now being: recombinant enzyme from transformant ETAM1; 30° C. for 30 min.
For the molecule B1, the “Optimum pH” value lay in the range of 4.5 to 8.0.

The same data set, now with this note: recombinant enzyme from transformant ETAM1; pH 6.0 for 30 min.
In the case of B1, the Optimum temperature fell in the range of 50 to 55 °C.
